Experiment [1] relates to Caco-2 cell monolayers. As to the kind of experiment: Paracellular permeability (permeation coefficient of FD-10 and Lucifer Yellow) of Caco-2 cell monolayers. It counts as cell-based, human. The following applies: for permeation of FD-10: FD-10 (10 kDa); for permeation of FD-10 / permeation of Lucifer Yellow: 48 h after peptide administration; for permeation of Lucifer Yellow: Lucifer Yellow (0.4 kDa); for Paracellular Permeability: summary table of claudin-derived peptides. Details: key to Paracellular Permeability: ↑ : increase; -: no change. The protocol:
(§1) Measurements of Transcellular Electrical Resistance (TER) and Paracellular Permeability. 24-well transwell filters (Millicell-CM, Millipore, Eschborn, Germany) were coated with rat tail collagen (250 µg/cm^2) for 16 h, washed twice with PBS (phosphate buffer saline) and preincubated with DMEM (600 µl basolateral, 400 µl apical for Endohm electrodes and 400 µl basolateral, 500 µl apical for the cellZscope system (nanoAnalytics GmbH, Münster, Germany)) for 24 h. Caco-2 cells (200.000 cell/cm^2) were seeded into the filters and grown to high-resistance TER (> 500 Ω/cm^2) for approx. 4 days. Medium was changed every day.
The permeation studies were performed by addition of 25 µg/ml Lucifer Yellow (0.4 kDa) or FD-10 (fluorescein isothiocyanate-dextran, 10 kDa) in HBSS (Hank's balanced salt solution buffer) on the apical side and HBSS alone on the basolateral side. After 10 min, 100 µl probes were removed from the basolateral side and the fluorescence units were measured by a fluorescence plate reader (Tecan, Crailsheim, Germany) to calculate the PCoeff (permeation coefficient, cm/s). The obtained data were analyzed with GraphPad Prism 3.0 program (GraphPad Software, San Diego, USA).
In general terms: Passage across Caco-2 layers is used to estimate intestinal permeability.

The subject of experiment [2] is Caco-2 cell monolayers. In words: Transcellular electrical resistance (TER) of Caco-2 cell monolayers. It counts as cell-based, human. The following applies: for transcellular electrical resistance (TER): 300 µM. The procedure: as §1
The experiments were performed as followed: After reaching high and stable TER values, cell monolayers were treated with peptides as described above. Control cells were incubated with respective medium. The TER values were measured at distinct time intervals. For re-arrangement of the monolayer, C1C2 was removed from the Caco-2 cells by exchange of the medium.

Experiment [3] has as its system perineurium of the sciatic nerve. As to the kind of experiment: Mechanical nociceptive thresholds (paw pressure threshold, modified Randall-Selitto test) after perineurial injection at the sciatic nerve. Format: in vivo, Male Wistar rats. The following applies: for Mechanical nociceptive thresholds (PPT) after injection of TTX: 10 µM TTX perineurially after peptide pretreatment (C1C2: 24-48 h); for mechanical nociceptive thresholds before the injection of DAMGO (Baseline) / mechanical nociceptive thresholds in contralateral paws: 400 µM peptide perineurially; for mechanical nociceptive thresholds in contralateral paws: contralateral paw. The source says: Animals. Animal protocols were approved by the animal care committee of the Regierung von Unterfranken and are in accordance with the International Association for the Study of Pain (44). Male Wistar rats weighing 180-220 g were used.
(§2) Perineurial Injection at the Sciatic Nerve. Nociceptive inputs from the rat hind paw travels through the sciatic nerve. Under brief isoflurane anesthesia, the right sciatic nerve was located using a 22 G needle connected to a nerve stimulator (Stimuplex Dig RC; Braun, Melsungen, Germany) as previously described (45). The needle was advanced to the point of maximal stimulation at 0.2 mA. 300 µl of the indicated substances was injected. If more than one injection within half hour was necessary the total injected volume was maintained at 300 µl.
(§3) Peptides were dissolved in 0.9% NaCl and injected perineurially in the indicated concentrations. Measurements (nociceptive thresholds, tissue harvest for Western blot or immunohistochemistry) were undertaken 24-96 h after peptide injection.
Measurements of Nociceptive Thresholds. Mechanical thresholds were determined using the paw pressure algesiometer (modified Randall-Selitto test; Ugo Basile, Comerio, Italy) as described before (47). The pressure required to elicit paw withdrawal, the paw pressure threshold (PPT), was determined in blinded experiments. Averages were calculated from three measurements each. An increase in PPT was interpreted as antinociception (analgesia), a decrease in PPT was interpreted as hyperalgesia (pain). Measurements were taken 10-60 min after injection of 100 µl containing 30 µg DAMGO or 10 µM TTX. The optimal doses of DAMGO or TTX have been evaluated in pilot studies (data not shown), but are similar to doses used for intraplantar injection in rats.

Experiment [4] has as its target T1, claudin-1 (Rattus norvegicus, UniProt P56745).
T1 construct: from tissue; host or cells: sciatic nerve (perineurium) of male Wistar rats
T1 sequence (P56745 1-211): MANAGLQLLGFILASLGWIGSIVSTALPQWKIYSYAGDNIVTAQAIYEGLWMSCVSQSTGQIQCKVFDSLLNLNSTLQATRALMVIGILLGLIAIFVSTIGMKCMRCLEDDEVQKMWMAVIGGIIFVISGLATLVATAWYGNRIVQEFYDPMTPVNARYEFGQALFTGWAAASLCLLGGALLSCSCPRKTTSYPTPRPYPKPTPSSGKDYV
As to the kind of experiment: Immunohistochemistry of claudin-1 in the sciatic nerve after perineurial injection. It counts as in vivo. The following applies: 400 µM perineurial injection, after 24 h. The procedure:
as §2, §3
The sciatic nerve was embedded in tissue-Tek compound (O.C.T., Miles Inc. Elkhart, Indiana) for claudin-1 staining. Sections (7-10 µm) were mounted onto gelatin-coated slides. Sections were fixed with acetone for 10 min at 4°C, washed in 0.01 M PBS (pH 7.4) for 10 min, incubated for 120 min in PBS containing 1% Triton X-100, washed in 0.01 M PBS and incubated for 30 min in 3% bovine serum albumin plus 1% normal goat serum blocking solution to prevent nonspecific binding. […] Finally, the sections were mounted and analyzed using the laser scanning microscope (Zeiss, Jena, Germany).

Experiment [5] concerns the target T2, claudin-1 (Homo sapiens, UniProt O95832).
T2 construct: Caco-2 cells express several TJ proteins; endogenous in cells; host or cells: Caco-2
T2 sequence (O95832 1-211): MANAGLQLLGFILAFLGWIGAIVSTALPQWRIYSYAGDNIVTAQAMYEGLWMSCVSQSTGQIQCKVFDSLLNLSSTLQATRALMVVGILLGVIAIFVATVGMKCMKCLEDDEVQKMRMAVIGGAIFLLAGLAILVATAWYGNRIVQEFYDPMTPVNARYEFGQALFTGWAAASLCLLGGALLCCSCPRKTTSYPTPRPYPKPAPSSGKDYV
In words: Immunocytochemistry of claudin-1 and ZO-1 in Caco-2 cell monolayers. The conditions noted are these: 300 µM, 24 and 48 h after treatment. It counts as cell-based. The protocol: Immunocytochemistry. Immunocytochemistry was performed as previously described (46). Caco-2 cells were transferred into 6-well plates containing collagen-coated cover-slips and grown to 60-70% confluence before use. Cells were treated with C1C2 (300 µM) as well as the control treated without peptide for 24 and 48 h, respectively. The medium was changed, followed by incubation with rabbit anti-claudin-1 and rabbit anti-ZO-1 (zonula occludens protein) antibodies and incubated with Alexa-Fluor 488-conjugated goat anti-rabbit secondary antibody. Cells were analyzed with the confocal microscope.

Experiment [6] addresses T1, claudin-1. In words: Western blot of claudin-1 in sciatic nerve fractions after perineurial injection. It counts as in vivo. The conditions noted are these: 400 µM perineurial injection. The procedure:
as §2, §3
Western Blot Analysis. […] Extracted protein was diluted in lysis buffer and quantified using the BCA protein assay reagent (Pierce, Rockford, IL, USA) and a plate reader (Tecan, Grödig, Austria). […] Proteins were detected using specific antibodies against claudin-1 (Invitrogen, Carlsbad, CA, USA) and as protein loading control […]-actin (Sigma Aldrich, Taufkirchen, Germany), respectively. Visualization was done by luminescence.
(In general: A western blot detects proteins with antibodies after separation by electrophoresis.)

The test system of experiment [7] is HEK-293 cells stably transfected with claudin-1-YFP. As to the kind of experiment: Confocal microscopy of peptide internalization in claudin-1-YFP expressing HEK-293 cells. It counts as cell-based, human. The following applies: 40 µM. The protocol:
(§4) Cell Culture. Caco-2 (colorectal adenocarcinoma) cells (41) were grown in a humidified atmosphere at 37 °C and 10% CO2, whereas HEK-293 (human embryonic kidney) cells (42) and HEK-293 cells stably transfected with claudin-1-YFP (yellow fluorescence protein) (43) were grown at 37 °C and 5% CO2. Cells were cultured in DMEM (Dulbecco's modified Eagle's medium) containing 10% fetal calf serum, 100 units/ml penicillin, 100 µg/ml streptomycin, and 1% L-analyl-L-glutamine.
(§5) Confocal Microscopy. HEK-293 cells and stably claudin-1-YFP expressing HEK-293 cells were transferred into 6-well plates containing collagen-coated cover-slips as described above and grown to 60-70% confluence. Then, cells were treated with the TAMRA-labeled peptide (40 µM) for 15 min, 35 min, and 24 h, respectively. Pluronic ®F-68 (0.0012%) was added as solution enhancer. After removing of the peptide, cells were analyzed with the LSM 510 Meta confocal microscope (Zeiss, Jena, Germany).

For another experiment, the system named is wild type HEK-293 cells. In words: Confocal microscopy of peptide internalization in wild type HEK-293 cells. Format: cell-based, human. The conditions noted are these: 40 µM, 24 h. The protocol: as §4, §5

No end group written: not given here. TAMRA = 5(6)-carboxytetramethylrhodamine

Regarding “ESATHSTGITQSDIYSTLLGLPADIQAAQ-NH2 [Peptide C2C2, peptide from the C-terminal part of the ECL1 of rat claudin-2, same modifications as C1C2, applied as negative control, reference compound]”, in the experiment on Caco-2 cell monolayers [1], the “permeation of FD-10” value is reported as “did not influence” and the “permeation of Lucifer Yellow” value was “did not influence”. Moreover, the “transcellular electrical resistance (TER)” value in the experiment on Caco-2 cell monolayers [2] (bilateral treatment, 24 h) is recorded as “unaffected”. Further, the “Mechanical nociceptive thresholds (PPT) after injection of TTX” value in experiment [3] is “unchanged”. In experiment [3] (DAMGO perisciatic 0-4 d after perineurial peptide (400 µM)), the “Mechanical nociceptive thresholds (paw pressure threshold, PPT) after injection of DAMGO” value was “unchanged”.

As for “SSVSQSTGQIQSKVFDSLLNLNSTLQATR-NH2 [Peptide C1C2, 29 amino acid peptide derived from the C-terminal part of the ECL1 of rat claudin-1, Cys54/Cys64 substituted by serines, C-terminally amidated]”, the “permeation of FD-10” value with Caco-2 cell monolayers [1] is “increased”. The “permeation of Lucifer Yellow” value with Caco-2 cell monolayers [1] is “increased”. The “Paracellular Permeability” value in the experiment with Caco-2 cell monolayers [1] is reported as “↑”. The “transcellular electrical resistance (TER)” value is on record as “significant reduction of the TER, but less efficient then the bilateral treatment” in the experiment on Caco-2 cell monolayers [2] (apical treatment) and “significant reduction” in the experiment with Caco-2 cell monolayers [2] (bilateral treatment, 24 h). For the same substance, in the experiment on Caco-2 cell monolayers [2] (bilateral application of 100, 200, and 300 µM), the TER entry is “Time- and concentration-dependent reduction”. The “recovery of the cell monolayer (barrier integrity) after removing peptide” value in the experiment with Caco-2 cell monolayers [2] (peptide removed at 48 h, read 24 h later, i.e. after 72 h) is on record as “Complete recovery”. The “claudin-1 immunoreactivity in the perineurium” value with claudin-1 [4] is “decreased”. Moreover, the “Mechanical nociceptive thresholds (PPT) after injection of TTX” value in experiment [3] is on record as “enhanced the effect of TTX”. Besides, the “mechanical nociceptive thresholds before the injection of DAMGO (Baseline)” value turned out to be 77.67 ± 1.8 g in experiment [3] (0 h); 74.67 ± 3.00 g in experiment [3] (24 h); 68.0 ± 2.02 g in experiment [3] (48 h); 69.00 ± 1.861 g in experiment [3] (72 h); 73.3 ± 2.87 g in experiment [3] (96 h). The “mechanical nociceptive thresholds in contralateral paws” value in experiment [3] (0 h) came out at 77.33 ± 1.3 g; in experiment [3] (24 h), 63.33 ± 2.36 g; in experiment [3] (48 h), 67.67 ± 2.03 g; in experiment [3] (72 h), 65.0 ± 1.25 g; in experiment [3] (96 h), 67.67 ± 2.09 g. Besides, the “mechanical nociceptive thresholds (PPT) after DAMGO” value in experiment [3] (24 h after perineurial 100 µM peptide, 10 min after 30 µg DAMGO) was “increase”. The “PPT after DAMGO” value in experiment [3] (48 h after perineurial 400 µM peptide, 10 min after 30 µg DAMGO) is “Significant increases”. Besides, the “membrane-localized claudin-1” value with claudin-1 [5] is given as “clear decrease”. For the same substance, the “claudin-1 protein expression in the membrane” value in the experiment with claudin-1 [6] (24 h and 48 h, membrane fraction) is recorded as “decreased”. In addition, in the experiment with claudin-1 [6] (cytosol fraction), the “claudin-1 protein expression in the cytosol” value is recorded as “No change”.

With “TAMRA-SSVSQSTGQIQSKVFDSLLNLNSTLQATR-NH2 ({TAMRA}-SSVSQSTGQIQSKVFDSLLNLNSTLQATR-NH2) [TAMRA-C1C2, C1C2 N-terminally labeled with TAMRA (5(6)-carboxytetramethylrhodamine)]”, in experiment [7], the “intracellular co-localization with claudin-1-YFP” value is “mainly co-localized”. In experiment [7] (24 h after treatment), the “membrane-localized claudin-1-YFP” value was “decrease”. Besides, the internalization result in experiment [7] (15 min, 35 min, 24 h) is reported as “internalized”; in the experiment on wild type HEK-293 cells it was “weak unspecific internalization”. Also, in the experiment on Caco-2 cell monolayers [1], the “Paracellular Permeability” value is on record as “↑”.

Values taken from patent publication EP2561886A1, “Peptide adjuvant for improved peripheral analgesia” (Forschungsverbund Berlin e.V., priority 2011, dated 2013).
